Experimental data as given in US20230100838A1 (Revolution Medicines, Inc., priority 2019, published 2023).

How the values were obtained:
Type in all cases: binding
[1] = target: T1, GDP-loaded K-Ras (1-169) C51S, C80L, C118S (Homo sapiens, UniProt P01116, C118S/C51S/C80L); experiment: K-Ras WT (GDP) cross-linking assay (conjugate formation, TOF mass spectrometry); design: key: 0: No observed x-linking; +: 0 < x ≤ 20; ++: 20 < x ≤ 40; +++: 40 < x ≤ 100; settings: percent covalently modified K-Ras by MS, room temperature, typical compound conc. 2, 10, 25 μM, endpoints 1 and 24 h
T1 construct: GDP-loaded K-Ras (1-169) C51S, C80L, C118S
Outline: (§1)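 5 μM protein (final, from 50 μM) in HEPES/NaCl/MgCl2 buffer pH 7.4 with compound typically at 2, 10 and 25 μM, room temperature, 1 and 24 h endpoints; formic acid quench. Intact-protein LC–TOF MS; percent modification is covalent adduct peak height over total K-Ras peak height.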

K-Ras G12S = K-Ras G12S (Homo sapiens, UniProt P01116, G12S); experiment: K-Ras G12S cross-linking assay (comparable procedure, conjugate formation, TOF mass spectrometry); design: key: 0: No observed x-linking
Experimental: Protocol: K-Ras G12D(GDP) Cross-Linking Assay
Note: while the following protocol outlines the procedure for K-Ras G12D(GDP), a person of skill in the art may substitute other Ras proteins, and may also substitute a non-hydrolyzable GTP analog for GDP to study GTP bound Ras protein.
GDP-loaded K-Ras (1-169) G12D, C51S, C80L, C118S and GDP-loaded K-Ras (1-169) C51S, C80L, C118S were adjusted to 50 μM in K-Ras assay buffer (12.5 mM HEPES, 75 mM NaCl and 1 mM MgCl2 at pH 7.4). A 5 μL aliquot of each protein solution was added to each well of a 96-well microplate containing 40 μL of assay buffer. Initial compound stocks were prepared in DMSO at 100 times their final assay concentration. Compounds were then diluted 10-fold into K-Ras assay buffer to 10 times their final concentration. A 5 μL aliquot of each diluted compound solution was added to each protein solution in the 96-well microplate to initiate the reaction, which then proceeded at room temperature. Typical final compound concentrations were 2, 10, and 25 μM. At each time point, the reactions were analyzed immediately or quenched with 5 μL of a 5% formic acid solution and kept at 4° C. until analysis. Typical assay endpoints were 1 and 24 h.
Data collection took place on an Agilent 6230 TOF Mass Spectrometer. Complete reactions were injected onto a C4 reverse-phase column to separate protein from buffer components prior to entering the mass spectrometer. The proteins were eluted from the column by increasing acetonitrile fraction in the mobile phase and fed directly into the mass analyzer. Initial analysis of raw data took place in Agilent MassHunter BioConfirm software and consisted of deconvolution of multiple protein charge states with the maximum entropy algorithm, with a mass step of 1 Da. The heights of all deconvoluted protein masses were exported for further data analysis. The percent modification of each protein was then determined by calculating the peak height of the covalently modified K-Ras species as a percentage of the sum total of K-Ras protein peak height.

[2] = target: T2, GDP-loaded K-Ras (1-169) G12D, C51S, C80L, C118S (Homo sapiens, UniProt P01116, C118S/C51S/C80L/G12D); experiment: K-Ras G12D(GDP) cross-linking assay (conjugate formation, TOF mass spectrometry); design: key: 0: No observed x-linking; +: 0 < x ≤ 20; ++: 20 < x ≤ 40; +++: 40 < x ≤ 100; settings: percent covalently modified K-Ras by MS, room temperature, typical compound conc. 2, 10, 25 μM, endpoints 1 and 24 h
T2 construct: GDP-loaded K-Ras (1-169) G12D, C51S, C80L, C118S
Outline: as §1

[3] = Table 4, percent covalently modified K-Ras by MS
[4] = Table 5, percent covalently modified K-Ras by MS

Row | Compound | WT x-linking (%) ([1]; Table 4) | G12S x-linking (%) (K-Ras G12S; [3]) | G12D x-linking (%) ([2]; Table 4) | WT x-linking (%) ([1]; Table 5) | G12S x-linking (%) (K-Ras G12S; [4]) | G12D x-linking (%) ([2]; Table 5)
1 | Fc1ccccc1-c1c(Cl)cc2c(N3CCC(N=C=NCc4ccccc4)CC3)ncnc2c1F [Example 1, N-benzyl-N-(1-(6-chloro-8-fluoro-7-(2-fluorophenyl)quinazolin-4-yl)piperidin-4-yl)methanediimine] | + (0 < x ≤ 20) | + (0 < x ≤ 10) | + (0 < x ≤ 20) | – | – | –
2 | Cc1cccc2cccc(N3CCc4c(nc(OC[C@@H]5CCCN5C)nc4N4CCC(N(C)C(=O)C5CN5C)CC4)C3)c12 (stereo partly drawn) [Example 45, N,1-dimethyl-N-(1-(7-(8-methylnaphthalen-1-yl)-2-(((S)-1-methylpyrrolidin-2-yl)methoxy)-5,6,7,8-tetrahydropyrido[3,4-d]pyrimidin-4-yl)piperidin-4-yl)aziridine-2-carboxamide] | + (0 < x ≤ 20) | + (0 < x ≤ 10) | + (0 < x ≤ 20) | – | – | –
3 | Cc1cccc2cccc(N3CCc4c(nc(OC[C@@H]5CCCN5C)nc4N4CCN(C5=NCCO5)CC4)C3)c12 [Example 39] | 0 | 0 | 0 | – | – | –
4 | Cc1cccc2cccc(N3CCc4c(nc(OC[C@@H]5CCCN5C)nc4N4CCN(C(=O)[C@H]5CN5)[C@@H](CC#N)C4)C3)c12 [Example 63, 2-((S)-1-((R)-aziridine-2-carbonyl)-4-(7-(8-methylnaphthalen-1-yl)-2-(((S)-1-methylpyrrolidin-2-yl)methoxy)-5,6,7,8-tetrahydropyrido[3,4-d]pyrimidin-4-yl)piperazin-2-yl)acetonitrile] | – | – | – | + (0 < x ≤ 20) | + (0 < x ≤ 10) | ++ (20 < x ≤ 40)
5 | CN=C=NC1CCN(c2ncnc3c(F)c(-c4ccccc4F)c(Cl)cc23)CC1 [Example 4, N-(1-(6-chloro-8-fluoro-7-(2-fluorophenyl)quinazolin-4-yl)piperidin-4-yl)-N-methylmethanediimine] | + (0 < x ≤ 20) | ++ (10 < x ≤ 100) | + (0 < x ≤ 20) | – | – | –
6 | Cc1cccc2cccc(N3CCc4c(nc(OC[C@@H]5CCCN5C)nc4N4CCN(C(=O)NCCCl)[C@@H](CC#N)C4)C3)c12 [Example 34, (S)—N-(2-chloroethyl)-2-(cyanomethyl)-4-(7-(8-methylnaphthalen-1-yl)-2-(((S)-1-methylpyrrolidin-2-yl)methoxy)-5,6,7,8-tetrahydropyrido[3,4-d]pyrimidin-4-yl)piperazine-1-carboxamide] | + (0 < x ≤ 20) | + (0 < x ≤ 10) | + (0 < x ≤ 20) | – | – | –
7 | Cc1cccc2cccc(N3CCc4c(nc(OC[C@@H]5CCCN5C)nc4N4CCC(N=C=NCc5ccon5)CC4)C3)c12 [Example 86, N-(isoxazol-3-ylmethyl)-N-(1-(7-(8-methylnaphthalen-1-yl)-2-(((S)-1-methylpyrrolidin-2-yl)methoxy)-5,6,7,8-tetrahydropyrido[3,4-d]pyrimidin-4-yl)piperidin-4-yl)methanediimine] | – | – | – | ++ (20 < x ≤ 100) | ++ (10 < x ≤ 100) | +++ (40 < x ≤ 100)
8 | CN(CCN=C=Nc1ccccc1)c1ncnc2c(F)c(-c3ccccc3F)c(Cl)cc12 [Example 7, 6-chloro-8-fluoro-7-(2-fluorophenyl)-N-methyl-N-(2-(((phenylimino)methylene)amino)ethyl)quinazolin-4-amine] | + (0 < x ≤ 20) | + (0 < x ≤ 10) | + (0 < x ≤ 20) | – | – | –

Results, then the molecule that gave them:

Row | WT x-linking (%) ([1]; Table 4) | G12S x-linking (%) (K-Ras G12S; [3]) | G12D x-linking (%) ([2]; Table 4) | WT x-linking (%) ([1]; Table 5) | G12S x-linking (%) (K-Ras G12S; [4]) | G12D x-linking (%) ([2]; Table 5) | Compound
9 | + (0 < x ≤ 20) | + (0 < x ≤ 10) | + (0 < x ≤ 20) | – | – | – | Fc1ccccc1-c1c(Cl)cc2c(NCCNC3=NCCO3)ncnc2c1F [Example 15, N-(6-chloro-8-fluoro-7-(2-fluorophenyl)quinazolin-4-yl)-N^2-(4,5-dihydrooxazol-2-yl)ethane-1,2-diamine]
10 | ++ (20 < x ≤ 100) | ++ (10 < x ≤ 100) | +++ (40 < x ≤ 100) | – | – | – | CCCN=C=NCCCN(C)c1nc(OC[C@@H]2CCCN2C)nc2c1CCN(c1cccc3cccc(C)c13)C2 [Example 30, N-methyl-7-(8-methylnaphthalen-1-yl)-2-(((S)-1-methylpyrrolidin-2-yl)methoxy)-N-(3-(((propylimino)methylene)amino)propyl)-5,6,7,8-tetrahydropyrido[3,4-d]pyrimidin-4-amine]
11 | – | – | – | ++ (20 < x ≤ 100) | ++ (10 < x ≤ 100) | +++ (40 < x ≤ 100) | Cc1cccc2cccc(N3CCc4c(nc(OC[C@@H]5CCCN5C)nc4N4CCC(N=C=NC5CCN(C)CC5)CC4)C3)c12 [Example 83, N-(1-(7-(8-methylnaphthalen-1-yl)-2-(((S)-1-methylpyrrolidin-2-yl)methoxy)-5,6,7,8-tetrahydropyrido[3,4-d]pyrimidin-4-yl)piperidin-4-yl)-N-(1-methylpiperidin-4-yl)methanediimine]
12 | – | – | – | + (0 < x ≤ 20) | ++ (10 < x ≤ 100) | ++ (20 < x ≤ 40) | COCC1(N=C=NC2CCN(c3nc(OC[C@@H]4CCCN4C)nc4c3CCN(c3cccc5cccc(C)c35)C4)CC2)CC1 [Example 80, N-(1-(methoxymethyl)cyclopropyl)-N-(1-(7-(8-methylnaphthalen-1-yl)-2-(((S)-1-methylpyrrolidin-2-yl)methoxy)-5,6,7,8-tetrahydropyrido[3,4-d]pyrimidin-4-yl)piperidin-4-yl)methanediimine]
13 | + (0 < x ≤ 20) | ++ (10 < x ≤ 100) | ++ (20 < x ≤ 40) | – | – | – | Cc1cccc2cccc(N3CCc4c(nc(OC[C@@H]5CCCN5C)nc4N(C)CCN=C=NCc4ccccc4)C3)c12 [Example 27, N-(2-(((benzylimino)methylene)amino)ethyl)-N-methyl-7-(8-methylnaphthalen-1-yl)-2-(((S)-1-methylpyrrolidin-2-yl)methoxy)-5,6,7,8-tetrahydropyrido[3,4-d]pyrimidin-4-amine]
14 | – | – | – | ++ (20 < x ≤ 100) | ++ (10 < x ≤ 100) | +++ (40 < x ≤ 100) | Cc1cccc2cccc(N3CCc4c(nc(OC[C@@H]5CCCN5C)nc4N4CCC(N=C=NCCn5ccnc5)CC4)C3)c12 [Example 87, N-(2-(1H-imidazol-1-yl)ethyl)-N-(1-(7-(8-methylnaphthalen-1-yl)-2-(((S)-1-methylpyrrolidin-2-yl)methoxy)-5,6,7,8-tetrahydropyrido[3,4-d]pyrimidin-4-yl)piperidin-4-yl)methanediimine]
15 | – | – | – | ++ (20 < x ≤ 100) | ++ (10 < x ≤ 100) | ++ (20 < x ≤ 40) | COCCN=C=NCC1CCN(c2nc(=O)n(-c3c(C)ccnc3C(C)C)c3nc(-c4ccccc4F)c(F)cc23)CC1 [Example 70, 6-fluoro-7-(2-fluorophenyl)-1-(2-isopropyl-4-methylpyridin-3-yl)-4-(4-(((((2-methoxyethyl)imino)methylene)amino)methyl)piperidin-1-yl)pyrido[2,3-d]pyrimidin-2(1H)-one]
16 | – | – | – | + (0 < x ≤ 20) | + (0 < x ≤ 10) | + (0 < x ≤ 20) | Cc1cccc2cccc(N3CCc4c(nc(OC[C@@H]5CCCN5C)nc4N4CCC(N=C=NCCc5cccs5)CC4)C3)c12 [Example 95, N-(1-(7-(8-methylnaphthalen-1-yl)-2-(((S)-1-methylpyrrolidin-2-yl)methoxy)-5,6,7,8-tetrahydropyrido[3,4-d]pyrimidin-4-yl)piperidin-4-yl)-N-(2-(thiophen-2-yl)ethyl)methanediimine]
